# In PubChem BioAssay (NCI):
#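 Dose response: 5 concentrations. Exposure: 48 h. Format: 96-well plates. Endpoint: linear interpolation; highest concentration if not reached. TGI denotes the concentration required for complete inhibition of growth.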
# How the values were obtained:
# Test in all cases: NCI tumour cell line growth inhibition, 48 h
# NCI/ADR-RES ovarian = system: NCI/ADR-RES ovarian
# HOP-92 NSCLC = system: HOP-92 NSCLC
# U251 CNS = system: U251 CNS
# SK-OV-3 ovarian = system: SK-OV-3 ovarian
# BT-549 breast = system: BT-549 breast
# MOLT-4 leukemia = system: MOLT-4 leukemia
# OVCAR-3 ovarian = system: OVCAR-3 ovarian
# HT29 colon = system: HT29 colon
# CCRF-CEM leukemia = system: CCRF-CEM leukemia
# MALME-3M melanoma = system: MALME-3M melanoma
# SR leukemia = system: SR leukemia
# LOX IMVI melanoma = system: LOX IMVI melanoma
# MCF7 breast = system: MCF7 breast
# SNB-75 CNS = system: SNB-75 CNS
# HL-60(TB) leukemia = system: HL-60(TB) leukemia
# SF-268 CNS = system: SF-268 CNS
# NCI-H226 lung = system: NCI-H226 lung
# T-47D breast = system: T-47D breast
# M14 melanoma = system: M14 melanoma
# OVCAR-4 ovarian = system: OVCAR-4 ovarian
# NCI-H23 lung = system: NCI-H23 lung
# SF-539 CNS = system: SF-539 CNS
# CAKI-1 renal = system: CAKI-1 renal
# NCI-H460 lung = system: NCI-H460 lung
# 786-0 renal = system: 786-0 renal
# UACC-257 melanoma = system: UACC-257 melanoma
# KM12 colon = system: KM12 colon
# MDA-MB-231 breast = system: MDA-MB-231 breast
# HCT-15 colon = system: HCT-15 colon
# EKVX NSCLC = system: EKVX NSCLC
# UACC-62 melanoma = system: UACC-62 melanoma
# OVCAR-8 ovarian = system: OVCAR-8 ovarian
# SNB-19 CNS = system: SNB-19 CNS
# SK-MEL-2 melanoma = system: SK-MEL-2 melanoma
# UO-31 renal = system: UO-31 renal
# SK-MEL-28 melanoma = system: SK-MEL-28 melanoma
# PC-3 prostate = system: PC-3 prostate
# SW-620 colon = system: SW-620 colon
# DU-145 prostate = system: DU-145 prostate
# COLO 205 colon = system: COLO 205 colon
# A498 renal = system: A498 renal
# NCI-H522 lung = system: NCI-H522 lung
# TK-10 renal = system: TK-10 renal
# K-562 leukemia = system: K-562 leukemia
# SF-295 CNS = system: SF-295 CNS
# RXF 393 renal = system: RXF 393 renal
# SN12C renal = system: SN12C renal
# SK-MEL-5 melanoma = system: SK-MEL-5 melanoma
# HCC-2998 colon = system: HCC-2998 colon
# MDA-MB-435 = system: MDA-MB-435
# IGROV1 ovarian = system: IGROV1 ovarian
# HCT-116 colon = system: HCT-116 colon
# OVCAR-5 ovarian = system: OVCAR-5 ovarian
# HOP-62 NSCLC = system: HOP-62 NSCLC
# MDA-N = system: MDA-N
# A549 NSCLC = system: A549 NSCLC
# ACHN renal = system: ACHN renal
# RPMI-8226 leukemia = system: RPMI-8226 leukemia
# HS 578T breast = system: HS 578T breast
compound,measurement,setting,value
Cc1nc2cc3ccccc3cc2[nH]c1=O,TGI,NCI/ADR-RES ovarian,> 100 µM
same,TGI,HOP-92 NSCLC,80.2 µM
same,TGI,U251 CNS,> 100 µM
same,TGI,SK-OV-3 ovarian,> 100 µM
same,TGI,BT-549 breast,> 100 µM
same,TGI,MOLT-4 leukemia,> 100 µM
same,TGI,OVCAR-3 ovarian,> 100 µM
same,TGI,HT29 colon,> 100 µM
same,TGI,CCRF-CEM leukemia,> 100 µM
same,TGI,MALME-3M melanoma,> 100 µM
same,TGI,SR leukemia,> 100 µM
same,TGI,LOX IMVI melanoma,> 100 µM
same,TGI,MCF7 breast,> 100 µM
same,TGI,SNB-75 CNS,87 µM
same,TGI,HL-60(TB) leukemia,> 100 µM
same,TGI,SF-268 CNS,> 100 µM
same,TGI,NCI-H226 lung,> 100 µM
same,TGI,T-47D breast,> 100 µM
same,TGI,M14 melanoma,> 100 µM
same,TGI,OVCAR-4 ovarian,> 100 µM
same,TGI,NCI-H23 lung,> 100 µM
same,TGI,SF-539 CNS,> 100 µM
same,TGI,CAKI-1 renal,> 100 µM
same,TGI,NCI-H460 lung,> 100 µM
same,TGI,786-0 renal,> 100 µM
same,TGI,UACC-257 melanoma,> 100 µM
same,TGI,KM12 colon,> 100 µM
same,TGI,MDA-MB-231 breast,> 100 µM
same,TGI,HCT-15 colon,> 100 µM
same,TGI,EKVX NSCLC,> 100 µM
same,TGI,UACC-62 melanoma,> 100 µM
same,TGI,OVCAR-8 ovarian,> 100 µM
same,TGI,SNB-19 CNS,> 100 µM
same,TGI,SK-MEL-2 melanoma,> 100 µM
same,TGI,UO-31 renal,> 100 µM
same,TGI,SK-MEL-28 melanoma,> 100 µM
same,TGI,PC-3 prostate,> 100 µM
same,TGI,SW-620 colon,> 100 µM
same,TGI,DU-145 prostate,> 100 µM
same,TGI,COLO 205 colon,> 100 µM
same,TGI,A498 renal,> 100 µM
same,TGI,NCI-H522 lung,> 100 µM
same,TGI,TK-10 renal,> 100 µM
same,TGI,K-562 leukemia,> 100 µM
same,TGI,SF-295 CNS,> 100 µM
same,TGI,RXF 393 renal,> 100 µM
same,TGI,SN12C renal,> 100 µM
same,TGI,SK-MEL-5 melanoma,> 100 µM
same,TGI,HCC-2998 colon,> 100 µM
same,TGI,MDA-MB-435,> 100 µM
same,TGI,IGROV1 ovarian,> 100 µM
same,TGI,HCT-116 colon,> 100 µM
same,TGI,OVCAR-5 ovarian,> 100 µM
same,TGI,HOP-62 NSCLC,> 100 µM
same,TGI,MDA-N,> 100 µM
same,TGI,A549 NSCLC,> 100 µM
CC(C)(C)OC(=O)[C@@H]1ON2O[C@H](OC3CCCC3(c3ccccc3)c3ccccc3)C[C@H]3OC(=O)[C@@H]1[C@H]32 (some centres undefined),TGI,NCI/ADR-RES ovarian,> 100 µM
same,TGI,U251 CNS,> 100 µM
same,TGI,SK-OV-3 ovarian,> 100 µM
same,TGI,BT-549 breast,> 100 µM
same,TGI,OVCAR-3 ovarian,54.1 µM
same,TGI,HT29 colon,> 100 µM
same,TGI,CCRF-CEM leukemia,> 100 µM
same,TGI,SR leukemia,> 100 µM
same,TGI,LOX IMVI melanoma,96.6 µM
same,TGI,MCF7 breast,> 100 µM
same,TGI,SNB-75 CNS,> 100 µM
same,TGI,SF-268 CNS,> 100 µM
same,TGI,NCI-H226 lung,> 100 µM
same,TGI,T-47D breast,> 100 µM
same,TGI,M14 melanoma,> 100 µM
same,TGI,OVCAR-4 ovarian,54.3 µM
same,TGI,NCI-H23 lung,> 100 µM
same,TGI,SF-539 CNS,> 100 µM
same,TGI,CAKI-1 renal,> 100 µM
same,TGI,NCI-H460 lung,> 100 µM
same,TGI,786-0 renal,> 100 µM
same,TGI,UACC-257 melanoma,> 100 µM
same,TGI,KM12 colon,> 100 µM
same,TGI,MDA-MB-231 breast,> 100 µM
same,TGI,HCT-15 colon,> 100 µM
same,TGI,EKVX NSCLC,> 100 µM
same,TGI,UACC-62 melanoma,> 100 µM
same,TGI,SNB-19 CNS,> 100 µM
same,TGI,SK-MEL-2 melanoma,51.8 µM
same,TGI,UO-31 renal,> 100 µM
same,TGI,SK-MEL-28 melanoma,> 100 µM
same,TGI,PC-3 prostate,> 100 µM
same,TGI,ACHN renal,> 100 µM
same,TGI,SW-620 colon,> 100 µM
same,TGI,DU-145 prostate,> 100 µM
same,TGI,COLO 205 colon,> 100 µM
same,TGI,NCI-H522 lung,> 100 µM
same,TGI,TK-10 renal,> 100 µM
same,TGI,K-562 leukemia,> 100 µM
same,TGI,SF-295 CNS,> 100 µM
same,TGI,RXF 393 renal,92.1 µM
same,TGI,SN12C renal,> 100 µM
same,TGI,SK-MEL-5 melanoma,> 100 µM
same,TGI,MDA-MB-435,> 100 µM
same,TGI,IGROV1 ovarian,> 100 µM
same,TGI,HCT-116 colon,> 100 µM
same,TGI,OVCAR-5 ovarian,> 100 µM
same,TGI,HOP-62 NSCLC,> 100 µM
same,TGI,MDA-N,> 100 µM
same,TGI,A549 NSCLC,> 100 µM
N#CC(C#N)=c1c2ccccc2c(=C(C#N)C#N)c2ccccc12,TGI,NCI/ADR-RES ovarian,72.4 µM
same,TGI,RPMI-8226 leukemia,> 100 µM
same,TGI,HOP-92 NSCLC,88.6 µM
same,TGI,U251 CNS,55.4 µM
same,TGI,SK-OV-3 ovarian,44.4 µM
same,TGI,BT-549 breast,65 µM
same,TGI,MOLT-4 leukemia,> 100 µM
same,TGI,OVCAR-3 ovarian,30 µM
same,TGI,HT29 colon,39.5 µM
same,TGI,CCRF-CEM leukemia,50.9 µM
same,TGI,LOX IMVI melanoma,40.5 µM
same,TGI,MCF7 breast,> 100 µM
same,TGI,SNB-75 CNS,39.8 µM
same,TGI,HL-60(TB) leukemia,59.2 µM
same,TGI,SF-268 CNS,77.5 µM
same,TGI,NCI-H226 lung,38.2 µM
same,TGI,HS 578T breast,47.7 µM
same,TGI,M14 melanoma,32.8 µM
same,TGI,NCI-H23 lung,43.7 µM
same,TGI,CAKI-1 renal,28.6 µM
same,TGI,NCI-H460 lung,63.6 µM
same,TGI,786-0 renal,30.6 µM
same,TGI,UACC-257 melanoma,51.2 µM
same,TGI,KM12 colon,37.6 µM
same,TGI,MDA-MB-231 breast,32.9 µM
same,TGI,HCT-15 colon,65 µM
same,TGI,UACC-62 melanoma,28.5 µM
same,TGI,OVCAR-8 ovarian,42.7 µM
same,TGI,SNB-19 CNS,32.4 µM
same,TGI,SK-MEL-2 melanoma,32.9 µM
same,TGI,SK-MEL-28 melanoma,48.3 µM
same,TGI,PC-3 prostate,30.4 µM
same,TGI,ACHN renal,43.3 µM
same,TGI,SW-620 colon,82.8 µM
same,TGI,COLO 205 colon,37.5 µM
same,TGI,A498 renal,54.9 µM
same,TGI,K-562 leukemia,> 100 µM
same,TGI,SN12C renal,30.7 µM
same,TGI,SK-MEL-5 melanoma,31 µM
same,TGI,MDA-MB-435,40.1 µM
same,TGI,IGROV1 ovarian,30.2 µM
same,TGI,HCT-116 colon,34.4 µM
same,TGI,OVCAR-5 ovarian,43.3 µM
same,TGI,HOP-62 NSCLC,40.5 µM
same,TGI,MDA-N,41.5 µM
same,TGI,A549 NSCLC,> 100 µM
NC(CCP(=O)(O)O)C(=O)O (centres undefined),TGI,NCI/ADR-RES ovarian,> 100 µM
same,TGI,RPMI-8226 leukemia,> 100 µM
same,TGI,HOP-92 NSCLC,> 100 µM
same,TGI,U251 CNS,> 100 µM
same,TGI,BT-549 breast,> 100 µM
same,TGI,MOLT-4 leukemia,> 100 µM
same,TGI,OVCAR-3 ovarian,> 100 µM
same,TGI,HT29 colon,> 100 µM
same,TGI,CCRF-CEM leukemia,> 100 µM
same,TGI,MALME-3M melanoma,> 100 µM
same,TGI,SR leukemia,> 100 µM
same,TGI,LOX IMVI melanoma,> 100 µM
same,TGI,HL-60(TB) leukemia,> 100 µM
same,TGI,SF-268 CNS,> 100 µM
same,TGI,NCI-H226 lung,> 100 µM
same,TGI,HS 578T breast,> 100 µM
same,TGI,T-47D breast,> 100 µM
same,TGI,M14 melanoma,> 100 µM
same,TGI,OVCAR-4 ovarian,> 100 µM
same,TGI,NCI-H23 lung,> 100 µM
same,TGI,CAKI-1 renal,> 100 µM
same,TGI,NCI-H460 lung,> 100 µM
same,TGI,786-0 renal,> 100 µM
same,TGI,UACC-257 melanoma,> 100 µM
same,TGI,KM12 colon,> 100 µM
same,TGI,MDA-MB-231 breast,> 100 µM
same,TGI,HCT-15 colon,> 100 µM
same,TGI,EKVX NSCLC,> 100 µM
same,TGI,UACC-62 melanoma,> 100 µM
same,TGI,OVCAR-8 ovarian,> 100 µM
same,TGI,SNB-19 CNS,> 100 µM
same,TGI,SK-MEL-2 melanoma,> 100 µM
same,TGI,UO-31 renal,> 100 µM
same,TGI,SK-MEL-28 melanoma,> 100 µM
same,TGI,PC-3 prostate,> 100 µM
same,TGI,ACHN renal,> 100 µM
same,TGI,SW-620 colon,> 100 µM
same,TGI,A498 renal,> 100 µM
same,TGI,NCI-H522 lung,> 100 µM
same,TGI,TK-10 renal,> 100 µM
same,TGI,K-562 leukemia,> 100 µM
same,TGI,SF-295 CNS,> 100 µM
same,TGI,RXF 393 renal,> 100 µM
same,TGI,SN12C renal,> 100 µM
same,TGI,SK-MEL-5 melanoma,> 100 µM
same,TGI,MDA-MB-435,> 100 µM
same,TGI,IGROV1 ovarian,> 100 µM
same,TGI,HCT-116 colon,> 100 µM
same,TGI,OVCAR-5 ovarian,> 100 µM
same,TGI,HOP-62 NSCLC,> 100 µM
same,TGI,MDA-N,> 100 µM
same,TGI,A549 NSCLC,> 100 µM
